One compound from US4963566A, “Benzimidazolyl-sulfinyl-tetrahydroquinolines” (Otsuka Pharmaceutical Co., Ltd., priority 1986, dated 1990) can be followed below.

This experiment has as its target T1, H^+ +K^+ ATPase (Sus scrofa, UniProt P19156).
T1 construct: prepared from porcine stomach; from tissue; host or cells: porcine stomach
Nature of the experiment: H+ +K+ ATPase inhibition (inorganic phosphoric acid release). As to conditions: enzyme prepared from porcine stomach; 30 min with compound at room temperature, pH 6.1; then 30 min at 37° C., pH 7.4, 20 mM KCl. Type of experiment: biochemical. As for the experimental part:
H^+ +K^+ ATPase (adenosine triphosphatase) (amount of protein: 10 μg) prepared from porcine stomach was added to a Pipes-TRIS [i.e. 2-amino-2-(hydroxymethyl)-1,3-propanediol] buffer solution (pH 6.1) containing 2 mM of piperazine N,N'-bis(2-ethanesulfonic acid), and the mixture was let stand at room temperature. A test compound was dissolved in dimethyl formamide, and the mixture was added to said H^+ +K^+ ATPase buffer solution so that the final concentration should be 1% and let stand for reaction for 30 minutes at room temperature. Then a 75 mM Pipes-TRIS buffer (1 ml, pH 7.4) (containing 4 mM MgCl2, 4 mM Na2 ATP, and 20 mM KCl) and a 75 mM Pipes-TRIS buffer (1 ml, pH 7.4) (containing 4 mM MgCl2, and 4 mM Na2 ATP) were added to the solution individually to make two kinds of samples and these samples were presented for reaction for 30 minutes at 37° C. 40% Trichloroacetic acid (0.3 ml) was added to each sample to stop the reaction. The solution were subjected to centrifugal separation (3000 rpm) for 10 minutes, and the supernatant was taken off, then the formed inorganic phosphoric acid was measured by Fiske and Subbarow's method [J. Biol. Chem. vol. 66, 375 (1925)]. The value of deducting the amount of inorganic phosphoric acid taken from the Pipes-Tris buffer not containing 20 mM KCl from that taken from the Pipes-Tris buffer containing 20 mM KCl was calculated in terms of unit protein and unit hour to be defined as an activity index of enzyme. Inhibition level (%) in doses of administration was estimated by control values and activity indices of enzyme, and from the obtained inhibition level (%), IC50 (dose of administration of compounds to inhibit in 50%) was obtained.

T1 sequence (P19156 2-1034 limits assumed): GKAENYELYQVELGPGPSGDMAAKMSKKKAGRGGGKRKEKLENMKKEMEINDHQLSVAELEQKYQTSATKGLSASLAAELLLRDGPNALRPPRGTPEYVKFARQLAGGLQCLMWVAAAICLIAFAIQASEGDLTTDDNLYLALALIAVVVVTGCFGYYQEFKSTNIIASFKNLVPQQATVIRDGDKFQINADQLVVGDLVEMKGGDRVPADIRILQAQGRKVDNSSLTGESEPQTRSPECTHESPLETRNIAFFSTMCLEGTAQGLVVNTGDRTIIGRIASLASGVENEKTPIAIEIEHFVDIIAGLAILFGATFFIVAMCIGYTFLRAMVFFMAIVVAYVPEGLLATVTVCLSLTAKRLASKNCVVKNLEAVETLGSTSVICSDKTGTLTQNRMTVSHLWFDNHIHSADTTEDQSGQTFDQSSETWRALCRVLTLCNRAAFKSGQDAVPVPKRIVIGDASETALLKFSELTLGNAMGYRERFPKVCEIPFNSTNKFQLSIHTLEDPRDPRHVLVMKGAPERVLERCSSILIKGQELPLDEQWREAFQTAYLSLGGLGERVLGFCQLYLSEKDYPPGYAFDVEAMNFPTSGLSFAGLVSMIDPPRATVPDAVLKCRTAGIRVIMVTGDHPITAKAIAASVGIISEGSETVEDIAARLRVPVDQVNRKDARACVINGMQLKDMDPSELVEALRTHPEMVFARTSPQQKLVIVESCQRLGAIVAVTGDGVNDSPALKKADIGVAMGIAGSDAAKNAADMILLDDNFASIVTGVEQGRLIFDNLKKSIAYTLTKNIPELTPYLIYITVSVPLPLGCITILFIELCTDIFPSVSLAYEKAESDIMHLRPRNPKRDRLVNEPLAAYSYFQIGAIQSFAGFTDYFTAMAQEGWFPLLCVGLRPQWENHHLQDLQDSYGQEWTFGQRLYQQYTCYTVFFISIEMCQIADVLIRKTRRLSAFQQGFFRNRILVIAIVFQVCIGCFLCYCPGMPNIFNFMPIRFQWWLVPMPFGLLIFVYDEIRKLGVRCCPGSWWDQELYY
T1 sequence (P18434 whole entry partner): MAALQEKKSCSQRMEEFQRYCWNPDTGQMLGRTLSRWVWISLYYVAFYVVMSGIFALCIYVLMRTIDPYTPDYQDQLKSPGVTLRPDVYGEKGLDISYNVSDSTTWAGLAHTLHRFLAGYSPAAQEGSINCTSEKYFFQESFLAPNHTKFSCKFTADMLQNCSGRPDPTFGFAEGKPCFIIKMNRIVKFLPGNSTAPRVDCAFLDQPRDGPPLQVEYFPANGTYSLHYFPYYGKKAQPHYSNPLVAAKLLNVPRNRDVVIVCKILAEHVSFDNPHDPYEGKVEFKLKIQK

For `Cc1ccc2nc([S+]([O-])Cc3cccc4c3N(Cc3ccc(F)cc3)CCC4)[nH]c2c1` (stereo not shown) [Test compound No. 34, 1-(4-fluorobenzyl)-8-(5-methyl-2-benzimidazolyl)sulfinylmethyl-1,2,3,4-tetrahydroquinoline], the IC50 turned out to be 2100 nM.

By IC50 is commonly meant the concentration that inhibits the measured activity by half.
